Where a SMILES comes first, the peptide text is derived from it. Bridges are numbered along the chain shown (N, C = ends). Where no end group is shown, it is not given here.
Key:
[1] = Estimated concentration in plasma during repeated subcutaneous administration with two vehicles (Example 3); assay type: in vivo, rat
[2] = Blood pressure lowering effect, 24-hour continuous intravenous administration, telemetry (Example 4); assay type: in vivo, cynomolgus monkey; design: Systolic blood pressure fluctuation range (maximum value %): unit not given here; conditions: for Systolic blood pressure fluctuation range (maximum value %): maximum value during administration period
Protocol: (§1) The CNP derivative (A) was continuously intravenously administered at doses of 0.015 to 0.1 mg/kg/day at a constant rate to telemetry transmitter-implanted cynomolgus monkeys (two males and two females), and studied for its influence on blood pressure (systolic, diastolic, and average blood pressures), heart rate, and an electrocardiographic parameter.

[3] = Concentration in plasma during 24-hour continuous intravenous administration (Example 4); assay type: in vivo, cynomolgus monkey; conditions: 0.1 mg/kg/day continuous i.v. 24 h, immediately before completion of administration
Protocol: as §1
[Table 3: Systolic blood pressure fluctuation range (maximum value during administration period) when CNP derivative (A) was continuously intravenously administered at constant rate for 24 hours to cynomolgus monkey, and concentration of CNP derivative (A) in plasma immediately before completion of administration

[4] = Body length after 7-day repeated or continuous subcutaneous administration (Example 2); assay type: in vivo, rat; conditions: for Body length (from mouth to end of tail): male SD rat
Protocol: A dosing solution of the CNP derivative (A) or (B) was repeatedly subcutaneously administered at doses of 0.005, 0.015, 0.05, 0.15 and 0.5 mg/kg/day once a day for 7 days to 7-week-old male Crl:CD (SD) rats, or charged in an osmotic pump (MINI-OSMOTIC PUMP Model 2002, manufactured by DURECT Corp., flow rate: 0.5 μL/hr, for 14-day use), implanted in the backs of rats, and continuously subcutaneously administered at these doses for 7 days. Their body lengths (from the mouth to the end of the tail) were measured before the start of administration and 8 days after the start of administration.

NPR-B = conditions: Furuya et al. 1992; cited from earlier work
[5] = normal mice, continuous intravenous administration, increased bone length; cited from earlier work

NPR-B, sequence (P20594 23-1047, species assumed): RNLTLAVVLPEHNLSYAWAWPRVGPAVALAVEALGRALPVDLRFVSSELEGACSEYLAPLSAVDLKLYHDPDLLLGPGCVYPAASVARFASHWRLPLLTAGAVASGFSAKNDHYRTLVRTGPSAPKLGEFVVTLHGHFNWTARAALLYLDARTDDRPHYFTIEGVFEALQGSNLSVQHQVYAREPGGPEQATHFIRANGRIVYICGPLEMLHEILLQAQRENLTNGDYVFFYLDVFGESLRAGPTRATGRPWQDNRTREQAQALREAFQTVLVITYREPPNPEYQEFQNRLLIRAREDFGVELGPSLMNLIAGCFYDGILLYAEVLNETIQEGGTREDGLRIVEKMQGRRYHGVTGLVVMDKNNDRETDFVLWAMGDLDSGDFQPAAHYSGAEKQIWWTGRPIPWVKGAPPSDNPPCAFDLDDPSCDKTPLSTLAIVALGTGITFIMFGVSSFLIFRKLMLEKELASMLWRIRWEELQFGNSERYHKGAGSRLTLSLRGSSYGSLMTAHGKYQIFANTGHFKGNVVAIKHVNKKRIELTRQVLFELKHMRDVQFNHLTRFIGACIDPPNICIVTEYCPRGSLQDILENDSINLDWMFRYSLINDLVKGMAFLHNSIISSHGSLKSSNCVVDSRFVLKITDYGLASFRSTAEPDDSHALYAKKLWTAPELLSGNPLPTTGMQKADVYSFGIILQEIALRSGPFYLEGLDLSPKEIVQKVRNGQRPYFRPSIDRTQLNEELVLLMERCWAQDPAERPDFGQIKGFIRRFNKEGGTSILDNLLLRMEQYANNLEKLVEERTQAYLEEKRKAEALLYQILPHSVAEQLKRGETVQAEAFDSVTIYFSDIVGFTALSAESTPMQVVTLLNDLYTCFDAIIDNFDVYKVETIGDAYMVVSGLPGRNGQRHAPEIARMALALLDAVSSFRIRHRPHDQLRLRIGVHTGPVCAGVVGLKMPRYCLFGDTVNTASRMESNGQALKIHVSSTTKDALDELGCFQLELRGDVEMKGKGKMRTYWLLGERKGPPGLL

Q: With `CC[C@H](C)[C@@H]1NC(=O)[C@H](CCCNC(=N)N)NC(=O)[C@H](CC(=O)O)NC(=O)[C@H](CC(C)C)NC(=O)[C@H](CCCCN)NC(=O)[C@H](CC(C)C)NC(=O)CNC(=O)[C@H](Cc2ccccc2)NC(=O)[C@@H](NC(=O)CNC(=O)[C@H](CCCCN)NC(=O)[C@H](CO)NC(=O)[C@H](CC(C)C)NC(=O)CN)CSSC[C@@H](C(=O)N[C@H](C(=O)N[C@@H](CCC(N)=O)C(=O)N[C@@H](CCC(N)=O)C(=O)N[C@@H](CCCNC(=N)N)C(=O)N[C@@H](CCCCN)C(=O)N[C@@H](CC(=O)O)C(=O)N[C@@H](CO)C(=O)N[C@@H](CCCCN)C(=O)N[C@@H](CCCCN)C(=O)N2CCC[C@H]2C(=O)N2CCC[C@H]2C(=O)N[C@@H](C)C(=O)N[C@@H](CCCCN)C(=O)N[C@@H](CC(C)C)C(=O)N[C@@H](CCC(N)=O)C(=O)N2CCC[C@H]2C(=O)N[C@@H](CCCNC(=N)N)C(=O)O)C(C)C)NC(=O)CNC(=O)[C@H](CC(C)C)NC(=O)CNC(=O)[C@H](CO)NC(=O)[C@H](CCSC)NC(=O)[C@H](CO)NC(=O)CNC1=O` [CNP derivative (A)] (H-GLSKGCFGLKLDRIGSMSGLGCVQQRKDSKKPPAKLQPR-OH; disulfide 6-22; N-terminus and C-terminus assumed) as the compound, how does the “estimated concentration in plasma” value ([1]; vehicle 1, 0.5 mg/kg s.c., 9 hours after administration) read?
A: ≤ 0.1 ng/mL

Q: What about the “estimated concentration in plasma” value ([1]; vehicle 1, 0.5 mg/kg s.c., immediately after administration) of the same compound?
A: ≥ 200 ng/mL

Q: And the “peak concentration in plasma (estimated)” value ([1]; vehicle 2, 0.25 mg/kg s.c.)?
A: about 40 ng/mL

Q: What about the “estimated concentration in plasma” value ([1]; vehicle 2, 0.25 mg/kg s.c., 12 hours after administration) of the same compound?
A: ≥ 0.1 ng/mL

Q: And the “Systolic blood pressure fluctuation range (maximum value %)” value ([2]; 0.015 mg/kg/day continuous i.v. 24 h)?
A: −6.8

Q: What about the “systolic blood pressure decrease” value ([2]; 0.05 mg/kg continuous i.v.) of the same compound?
A: −11.0 mmHg

Q: And the “Systolic blood pressure fluctuation range (maximum value %)” value ([2]; 0.05 mg/kg/day continuous i.v. 24 h)?
A: −11.0

Q: And the “systolic blood pressure decrease” value ([2]; 0.1 mg/kg continuous i.v.)?
A: −20.5 mmHg

Q: And the “Systolic blood pressure fluctuation range (maximum value %)” value ([2]; 0.1 mg/kg/day continuous i.v. 24 h)?
A: −20.5

Q: What about the reflex tachycardia ([2]; concentration in plasma up to 9.8 ng/mL at its maximum) of the same compound?
A: no symptom indicating reflex tachycardia was observed

Q: What about the “concentration in plasma up to which reflex tachycardia is less likely to occur” value ([2]; elevated by continuous change) of the same compound?
A: about 10 ng/mL

Q: And the “blood pressure lowering effect (systolic and average blood pressures), average of differences from pre-administration values” ([2]; observed from 0.05 mg/kg)?
A: exceeding 10 mmHg

Q: And the “concentration in plasma at which the risk of developing decreased blood pressure is drastically reduced” value ([2]; waking cynomolgus monkeys)?
A: ≤ 4 ng/mL

Q: What about the Concentration in plasma [3] of the same compound?
A: 9.8 ng/mL

Q: Which results are given for “CNP derivative (B): derivative consisting of the amino acid sequence Pro-Gly-CNP-37 (SEQ ID NO: 4), from WO2009/067639, under clinical development for achondroplasia (PGQEHPNARKYKGANKKGLSKGCFGLKLDRIGSMSGLGC; CNP derivative D, which disclosed in Am. J. Hum. Gent.(2012), 91(6), 1108-1114)”?
A: bone growth effect per dose, continuous vs repeated subcutaneous administration ([4]; 7 days): stronger under continuous subcutaneous administration conditions; Body length (from mouth to end of tail) ([4]; continuous subcutaneous, 0.005 mg/kg/day, 7 days): 215.2 ± 3.5 ^NS mm; Body length (from mouth to end of tail) ([4]; continuous subcutaneous, 0.015 mg/kg/day, 7 days): 213.6 ± 4.4 ^NS mm; Body length (from mouth to end of tail) ([4]; continuous subcutaneous, 0.05 mg/kg/day, 7 days): 212.2 ± 5.2 ^NS mm; Body length (from mouth to end of tail) ([4]; continuous subcutaneous, 0.15 mg/kg/day, 7 days): 220.2 ± 4.3 mm; Body length (from mouth to end of tail) ([4]; continuous subcutaneous, 0.5 mg/kg/day, 7 days): 222.8 ± 3.5 mm; increase in body length (from the mouth to the end of the tail) ([4]; continuous subcutaneous, 7-day, doses of 0.15 mg/kg/day or higher): significant increase; effect on body length ([4]; repeated subcutaneous administration conditions, 7 days): no significant effect; Body length (from mouth to end of tail) ([4]; repeated subcutaneous, 0.005 mg/kg/day, 7 days): 211.8 ± 2.9 ^NS mm; Body length (from mouth to end of tail) ([4]; repeated subcutaneous, 0.015 mg/kg/day, 7 days): 213.2 ± 4.4 ^NS mm; Body length (from mouth to end of tail) ([4]; repeated subcutaneous, 0.05 mg/kg/day, 7 days): 214.4 ± 4.7 ^NS mm; Body length (from mouth to end of tail) ([4]; repeated subcutaneous, 0.15 mg/kg/day, 7 days): 211.3 ± 4.5 ^NS mm; Body length (from mouth to end of tail) ([4]; repeated subcutaneous, 0.5 mg/kg/day, 7 days): 215.2 ± 3.3 ^NS mm

Q: Which “NPR-B agonistic activity compared with hCNP-22” value (NPR-B) does the source give for “CNP6-22: peptide consisting of the ring structure, amino acid positions 6 to 22 of SEQ ID NO: 1 (CFGLKLDRIGSMSGLGC; disulfide 1-17 (inferred); listed as Homo sapiens)” here?
A: almost equivalent to that of hCNP-22

Q: For CNP-22, which “effective concentration in plasma” value [5] is on record?
A: 29.3 ng/mL

— patent publication US20200030414A1, “THERAPEUTIC AGENT FOR SHORT STATURE” (Daiichi Sankyo Company, Limited, priority 2017, published 2020)
